Source: patent US20020128231A1 (priority 2000, published 2002)

Columns and labels:
P-glycoprotein = P-glycoprotein (Homo sapiens, UniProt P08183); experiment: Rhodamine 123 transport assay across HCT-8 cell monolayers; details: for inhibition at 10 μM: human, HCT-8 cell monolayers in Transwell dishes, probe Rhodamine 123 (15 μM)
Description: The human ileocecal adenocarcinoma cell line HCT-8 was grown in RPMI-1640 medium supplemented with 10% horse serum, 1 mM sodium pyruvate and 0.01 mg/ml gentamicin. All cells were maintained in a humidified atmosphere with 5% CO2 at 37° C.
Rhodamine 123 transport was examined as previously described (Hunter J. et al., Simmons, Br. J. Cancer, 64: 437444 (1991); Kim A. E. et al., J. Pharm. Exp. Ther., 286: 1439-1445 (1998)) using HCT-8 cells. Particularly, cells were grown in 6 well Corning Transwell dishes until a tight monolayer was formed. Rh123 was added at a final concentration of 15 μM to the basal or apical compartments and 200 μl samples were taken at the indicated times from the opposite chamber. Fluorescence of Rh123 in the media samples was measured using a fluorescence plate reader with an excitation wavelength of 485 nm and an emission wavelength of 530 nm.

[1] = tested on: MDR1-expressing NIH 3T3 cells; experiment: Cytotoxicity (MTT) assay: modulation of drug cytotoxicity in multidrug resistant cells; details: compound 5 μM; 50 nM doxorubicin; 72 hours; MTT
Description: Cytotoxicity assays were performed with many of the compounds of Formula I to verify their usefulness as inhibitors of P-gp.
Parental NIH3T3 Swiss mouse embryo cell line was obtained from American Type Culture Collection and was grown in Dulbecco's Modified Eagles Medium supplemented with 4.5 g/L glucose, 10% fetal bovine serum, 2 mM L-glutamine, and 0.01 mg/ml gentamicin. […] All cells were maintained in a humidified atmosphere with 5% CO2 at 37° C.
Parental and MDR1-expressing NIH 3T3 cells were plated at a density of 2.5-3.0×10^3 cells/well in 96-well microtiter plates and were exposed to 50 nM of doxoriubicin, 7.5 nM vinblastine, 75 nM colchicine or 300 nM paclitaxel for 72 hours. Cell viability was determined with the colorimetric MTT (3-(4,5-dimethylthiazol-2-yl)-2,5-diphenyl tetrazolium) assay as previously described (Mosmann T., J. Immunol. Methods, 65: 55-63 (1983); Hansen M. B. et al., J. Immunol. Methods, 119: 203-210 (1989)) and the absorbance was measured at 570 nm.

[2] = compound 10 μM, Rh123 15 μM, HCT-8 cells
[3] = % Inhibition of R123 Transport, compound 10 μM, Rh123 15 μM, HCT-8 cells

Chain of P-glycoprotein (P08183 whole entry): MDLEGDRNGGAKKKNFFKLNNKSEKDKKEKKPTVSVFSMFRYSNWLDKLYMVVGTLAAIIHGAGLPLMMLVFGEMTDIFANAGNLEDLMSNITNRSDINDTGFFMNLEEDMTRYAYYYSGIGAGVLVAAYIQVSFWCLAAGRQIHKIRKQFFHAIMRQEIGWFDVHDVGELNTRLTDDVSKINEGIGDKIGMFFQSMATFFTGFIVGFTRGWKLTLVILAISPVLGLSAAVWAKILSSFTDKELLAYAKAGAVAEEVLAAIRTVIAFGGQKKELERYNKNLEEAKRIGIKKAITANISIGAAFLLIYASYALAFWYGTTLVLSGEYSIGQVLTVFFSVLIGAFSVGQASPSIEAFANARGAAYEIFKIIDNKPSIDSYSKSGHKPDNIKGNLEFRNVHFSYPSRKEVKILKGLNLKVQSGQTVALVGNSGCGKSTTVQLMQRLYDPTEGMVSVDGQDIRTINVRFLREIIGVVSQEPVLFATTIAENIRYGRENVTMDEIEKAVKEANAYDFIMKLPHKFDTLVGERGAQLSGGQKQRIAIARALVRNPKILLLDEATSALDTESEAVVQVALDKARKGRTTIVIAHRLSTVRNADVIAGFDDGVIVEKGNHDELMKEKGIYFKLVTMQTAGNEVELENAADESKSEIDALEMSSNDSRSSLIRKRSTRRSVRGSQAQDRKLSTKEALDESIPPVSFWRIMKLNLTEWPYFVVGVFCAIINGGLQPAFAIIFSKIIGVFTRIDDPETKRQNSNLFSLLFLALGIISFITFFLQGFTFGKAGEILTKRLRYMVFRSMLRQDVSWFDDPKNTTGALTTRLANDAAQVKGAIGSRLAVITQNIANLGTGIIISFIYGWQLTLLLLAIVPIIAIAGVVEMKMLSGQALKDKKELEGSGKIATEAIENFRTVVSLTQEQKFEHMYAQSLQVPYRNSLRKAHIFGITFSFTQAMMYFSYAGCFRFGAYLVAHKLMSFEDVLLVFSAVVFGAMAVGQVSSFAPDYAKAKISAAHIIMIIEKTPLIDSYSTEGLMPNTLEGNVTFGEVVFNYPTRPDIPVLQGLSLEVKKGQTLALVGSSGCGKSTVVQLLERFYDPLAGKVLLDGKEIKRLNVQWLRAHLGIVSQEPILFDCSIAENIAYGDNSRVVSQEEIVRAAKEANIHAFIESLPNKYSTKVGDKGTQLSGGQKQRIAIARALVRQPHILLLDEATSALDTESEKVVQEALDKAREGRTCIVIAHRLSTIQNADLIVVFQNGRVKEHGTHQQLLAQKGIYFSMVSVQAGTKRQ

| % Inhibition of R123 Transport (P-glycoprotein; [2]) | inhibition at 10 μM (P-glycoprotein; [3]) | SMILES | Modulation of Drug Resistance (percentage increase in doxorubicin cytotoxicity in the presence of the compounds versus in their absence) [1] | inhibition at 10 μM (P-glycoprotein) |
| --- | --- | --- | --- | --- |
| 71.3% | – | COc1ccc(C2c3cc(OC)c(OC)cc3C(CCO[Si](c3ccccc3)(c3ccccc3)C(C)(C)C)C2CO)cc1OC (stereo not drawn) [AV-175, [1-[2-t-butyldiphenyl-silanoxy)-ethyl-3-(3,4-dimethoxyphenyl)-5,6-dimethoxy-indan-2-yl]-methanol] | 52.50% | – |
| – | 52.2% | CCCCN(CCCC)C(=O)CC1c2cc(OC)c(OC)cc2C(c2ccc(OC)c(OC)c2)C1C(=O)N(CCCC)CCCC (stereo not drawn) [AV-190, 1-(3,4-dimethoxyphenyl)-3-dibutylcarbamoylmethyl-5,6-dimethoxy-indan-2-carboxylic acid dibutyl amide] | 65.35% | – |
| – | 11.8% | CCCCCCN(CCCCCC)C(=O)CC1c2cc(OC)c(OC)cc2C(c2ccc(OC)c(OC)c2)C1C(=O)N(CCCCCC)CCCCCC (stereo not drawn) [AV-193, 1-(3,4-dimethoxyphenyl)-3-dihexylcarbamoylmethyl-5,6-dimethoxy-indan-2-carboxylic acid dihexyl amide] | 25.20% | – |
| – | 84.7% | COCC1C(CCN2CCN(c3ccccc3)CC2)c2cc(OC)c(OC)cc2C1c1ccc(OC)c(OC)c1 (stereo not drawn) [AV-198, 1-{-2-[3-(3,4-dimethoxyphenyl)-5,6-dimethoxy-2-methoxymethyl-indan-1-yl]-ethyl}-4-phenylpiperazine] | 58.65% | – |
| – | 84% | COCC1C(CCN2CCN(c3ccc(OC)cc3)CC2)c2cc(OC)c(OC)cc2C1c1ccc(OC)c(OC)c1 (stereo not drawn) [AV-199, 1-{-2-[3-(3,4-dimethoxyphenyl)-5,6-dimethoxy-2-methoxymethyl-indan-1-yl]-ethyl}-4-(4-methoxyphenyl)-piperazine] | 61.63% | – |
| – | 11.5% | COCC1C(CCO)c2cc(OC)c(OC)cc2C1c1ccc(OC)c(OC)c1 (stereo not drawn) [AV-176, 2-[3-[3,4-dimethoxyphenyl)-5,6-dimethoxy-2-methoxymethyl-indan-1-yl]-ethanol] | 8.65% | – |
| 73.84% | – | COc1ccc(C2c3cc(OC)c(OC)cc3C(CCNC(=O)c3ccc(OC(F)(F)F)cc3)C2CNC(=O)c2ccc(OC(F)(F)F)cc2)cc1OC (stereo not drawn) [AV-260] | 2.1% | – |
| 40.4% | – | COc1ccc(C2c3cc(OC)c(OC)cc3C(CC(=O)N3CCN(C(=O)OC(C)(C)C)CC3)C2C(=O)N2CCN(C(=O)OC(C)(C)C)CC2)cc1OC (stereo not drawn) [AV-180, 4-{2-[3-(3,4-dimethoxyphenyl)-5,6-dimethoxy-2-(piperazine-1-carboxylic acid t-butyl ester)-indan-1-yl]-acetyl}-piperazine-1-carboxylic acid t-butyl ester] | 42.84% | – |
| 23.1% | – | CCOC(=O)N1CCN(C(=O)CC2c3cc(OC)c(OC)cc3C(c3ccc(OC)c(OC)c3)C2C(=O)N2CCN(C(=O)OCC)CC2)CC1 (stereo not drawn) [AV-174, 4-{2-[3-(3,4-dimethoxyphenyl)-5,6-dimethoxy-2-(piperazine-1-carboxylic acid ethyl ester)-indan-1-yl]-acetyl}-piperazine-1-carboxylic acid ethyl ester] | 18.50% | – |
| 87.7% | – | COc1ccc(C2c3cc(OC)c(OC)cc3C(CC(=O)N3CCN(C(=O)OCc4ccccc4)CC3)C2C(=O)N2CCN(C(=O)OCc3ccccc3)CC2)cc1OC (stereo not drawn) [AV-179, 4-{2-[3-(3,4-dimethoxyphenyl)-5,6-dimethoxy-2-(piperazine-1-carboxylic acid benzyl ester)-indan-1-yl]-acetyl}-piperazine-1-carboxylic acid benzyl ester] | 58.07% | – |
| 92.03% | – | CCOc1ccc(C2c3cc(OCC)c(OCC)cc3C(CC(=O)N3CCN(c4ccccc4OCC)CC3)C2C(=O)N2CCN(c3ccccc3OCC)CC2)cc1OCC (stereo not drawn) [AV-253] | 19.8% | – |
| – | – | COCC1C(CCN2CCC(Cc3ccccc3)CC2)c2cc(OC)c(OC)cc2C1c1ccc(OC)c(OC)c1 (stereo not drawn) | 73.65% | 88.9% |
| 63.0% | – | COc1ccc(N2CCN(CCC3c4cc(OC)c(OC)cc4C(c4ccc(OC)c(OC)c4)C3CN3CCN(c4ccc(OC)cc4)CC3)CC2)cc1 (stereo not drawn) [AV-183, 2-{3-(3,4-dimethoxyphenyl)-5,6-dimethoxy-2-[4-(4-methoxy)-piperazin-1-yl-methyl]-indan-1-yl}-1-[4-(4-methoxyphenyl)-piperazin-1-yl]-ethane] | 52.24% | – |
| 83.47% | – | CCCc1ccc(C(=O)NCCC2c3cc(OC)c(OC)cc3C(c3ccc(OC)c(OC)c3)C2CNC(=O)c2ccc(CCC)cc2)cc1 (stereo not drawn) [AV-262] | 18.0% | – |
| – | 83.1% | COc1ccc(C2c3cc(OC)c(OC)cc3C(CCN3CCN(c4ccccc4)CC3)C2CN2CCN(c3ccccc3)CC2)cc1OC (stereo not drawn) [AV-162, 2-[3-(3,4-dimethoxyphenyl)-5,6-dimethoxy-2-(4-phenylpiperazin-1-yl)methyl-indan-1-yl]-1-(4-phenylpiperazin-1-yl)-ethane] | 65.83% | – |
| – | 55.9% | CCOc1ccccc1N1CCN(C(=O)CC2c3cc(OC)c(OC)cc3C(c3ccc(OC)c(OC)c3)C2C(=O)O)CC1 (stereo not drawn) [AV-250, 1-(3,4-Dimethoxy-phenyl)-3-{2-[4-(2-ethoxy-phenyl)-piperazin-1-yl]-2-oxo-ethyl}-5,6-dimethoxy-indan-2-carboxylic acid] | −7.1% | – |
| – | 6% | COc1ccc(C2c3cc(OC)c(OC)cc3C(CC(=O)N(C)C)C2C(=O)N(C)C)cc1OC (stereo not drawn) [AV-181, 1-(3,4-dimethoxyphenyl)-3-dimethylcarbamoylmethyl-5,6-dimethoxy-indan-2-carboxylic acid dimethyl amide] | 6.13% | – |
| – | 64.2% | CCCCCOc1ccc(C2c3cc(OCCCCC)c(OC)cc3C(CC(=O)N3CCN(c4ccccc4OCC)CC3)C2C(=O)N2CCN(c3ccccc3OCC)CC2)cc1OC (stereo not drawn) [AV-252, 2-[2-[4-(2-Ethoxy-phenyl)-piperazine-1-carbonyl]-6-methoxy-3-(3-methoxy-4-pentyloxy-phenyl)-5-pentyloxy-indan-1-yl]-1-[4-(2-ethoxy-phenyl)-piperazin-1-yl]ethanone] | −0.5% | – |
| 9.4% | – | COCC1C(CCOS(C)(=O)=O)c2cc(OC)c(OC)cc2C1c1ccc(OC)c(OC)c1 (stereo not drawn) [AV-177, methanesulfonic acid 2-[3-(3,4-dimethoxyphenyl)-5,6-dimethoxy-2-methoxymethyl-indan-1-yl] ethyl ester] | 40.32% | – |
| – | 25% | CCN(CC)C(=O)CC1c2cc(OC)c(OC)cc2C(c2ccc(OC)c(OC)c2)C1C(=O)N(CC)CC (stereo not drawn) [AV-182, 1-(3,4-dimethoxyphenyl)-3-diethylcarbamoylmethyl-5,6-dimethoxy-indan-2-carboxylic acid diethyl amide] | 23.87% | – |
| – | 20.2% | CCCCC(CC)CN(CC(CC)CCCC)C(=O)CC1c2cc(OC)c(OC)cc2C(c2ccc(OC)c(OC)c2)C1C(=O)N(CC(CC)CCCC)CC(CC)CCCC (stereo not drawn) [AV-192, 1-{[bis(2-ethylhexyl)carbamoyl]methyl}-3-(3,4-dimethoxyphenyl)-5,6-dimethoxy-indan-2-carboxylic acid bis(2-ethylhexyl) amide] | 19.61% | – |
| – | 81.4% | COc1ccc(C2c3cc(OC)c(OC)cc3C(CC(=O)N3CCC(Cc4ccccc4)CC3)C2C(=O)N2CCC(Cc3ccccc3)CC2)cc1OC (stereo not drawn) [AV-159, 2-[2-(4-benzylpiperidine-1-carbonyl)-3-(3,4-dimethoxyphenyl)-5,6-dimethoxy-indan-1-yl]-1-(4-benzylpiperidin-1-yl)-ethanone] | 56.06% | – |
| – | 53.6% | CCOc1ccccc1N1CCN(C(=O)CC2c3cc(OC)c(OCc4ccccc4)cc3C(c3ccc(OCc4ccccc4)c(OC)c3)C2C(=O)N2CCN(c3ccccc3OCC)CC2)CC1 (stereo not drawn) [AV-205, 2-{5-benzyloxy-3-(4-benzyloxy-3-methoxyphenyl)-2-{4-(2-ethoxyphenyl)-piperazine-1-carbonyl}-6-methoxy-indan-1-yl}-1-{4-(2-ethoxyphenyl)-piperazin-1-yl]-ethanone] | 35.56% | – |

| SMILES | % Inhibition of R123 Transport (P-glycoprotein; [2]) | inhibition at 10 μM (P-glycoprotein; [3]) | Modulation of Drug Resistance (percentage increase in doxorubicin cytotoxicity in the presence of the compounds versus in their absence) [1] | inhibition at 10 μM (P-glycoprotein) |
| --- | --- | --- | --- | --- |
| COc1cc(C2c3cc(O)c(OC)cc3C(CC(=O)N3CCC(Cc4ccccc4)CC3)C2C(=O)N2CCC(Cc3ccccc3)CC2)ccc1O (single isomer, unassigned) [AV-251-1] | 79.26% | – | −6.9% | – |
